A word on the melting point: it is the temperature, or range, at which the solid turns liquid. As for `O=C(O)COc1cc(F)ccc1C(=S)NCc1nc2c(F)c(F)cc(F)c2s1`, the melting point stood at 150 °C.

The molecule `CC(=O)NCC1CNC(=O)O1` (configuration not stated) gave a melting point of 138 °C. Turning to `COc1cc(OC)c2c(=O)[nH]c(-c3cccc(N4CCN(C(C)C(N)=O)CC4)n3)nc2c1` (configuration not stated), the melting point was in the range of 149 to 150 °C. The same measure for `CCOC(=O)C1=C(OCC)C(OCC)=NS1(=O)=O`: 129 to 133 °C.

`CC(C)CC1(CC(=O)NO)CC(=O)N(CCc2ccccc2)C1=O` (configuration not stated) gave a melting point of 136 to 137 °C. As for `CC(O)c1cc(Cl)ccc1O` (configuration not stated), the figure is 98 °C; as for `O=C(NN1CCOCC1)OCCOc1ccc(OCCOC(=O)NN2CCOCC2)cc1`, 219 to 221 °C; as for `CSCCCOc1nc(-c2ccc(F)cc2C)c2ccc(=O)n(-c3c(F)cccc3F)c2n1`, 127 to 128 °C. As for `COc1cc(Cl)c2c(-c3ccccc3F)noc2c1`, the figure is 113 to 115 °C; as for `CS(=O)(=O)c1cccc(NC(=O)c2cnn3c(C(F)(F)F)cc(-c4ccc(F)c(F)c4)nc23)c1`, 256 °C. The same measure for `NC(=O)N(O)CCNC(=O)c1cccc(Oc2ccc(Cl)c(Cl)c2)c1`: 153 to 156 °C; for `O=C1C=C(O)CC(c2ccc3c(c2)OCO3)C1` (configuration not stated): 181 °C; for `CNC1=CC(=O)N(C)C1`: 132 to 134 °C. The molecule `CC(=O)NC[C@H]1CN(c2ccc(N3CCC4(CC3)OCCO4)cc2)C(=O)O1` yielded a melting point of 140 to 142 °C. As for `O=C(NCC1CC1)N1CC(Oc2cccc(C(F)(F)F)c2)C1`, the figure is 132 to 133 °C; as for `CC(=O)N1CCC(C(=O)c2cc(F)ccc2F)CC1`, 82 to 87 °C; as for `CCOC(=O)c1c(-c2ccccc2)c2c3ccccc3ccn2c1C(C)C`, 82 to 84 °C. The same measure for `Cc1nn(C)c(O)c1C(=O)c1ccc(Cl)cc1[N+](=O)[O-]`: 223 to 224 °C. Molecule `O=C(NC(C(=O)O)c1ccsc1)OCc1ccccc1` (configuration not stated) displayed a melting point of 115 to 117 °C.

`O=c1cc(-c2ccccc2)oc2cc(OCCCCCCN3CCC(O)CC3)ccc12` showed a melting point of 130 to 131 °C.

Regarding `CNC(=O)c1ccc(C)c(-c2nc(S(C)(=O)=O)nc3c2CNC(=O)N3c2c(F)cccc2F)c1`, the melting point is 275 to 278 °C. As for `COC(c1ccccc1)c1cc(C(F)(F)F)nc2c(C(F)(F)F)cccc12` (configuration not stated), the figure is 115 to 117 °C. For the molecule `COC(=O)c1cn(-c2ccc(OC)c(OC3CC4CCC3C4)c2)c2ccccc12` (configuration not stated), the melting point is 120 to 122 °C. The same measure for `CN(C=O)CC1(N(C)C)CCCCC1`: 59 to 60 °C; for `Fc1ccc(NC(=S)NN2CC=CCC2)cc1`: 163 to 164 °C; for `CCCC[C@H](NC(=O)[C@H](C)NC(=O)OCc1ccccc1)C(=O)CSCc1ccco1`: 85 to 87 °C. As for `Cc1c(N=C2NCCO2)cccc1NS(C)(=O)=O`, the figure is 124 to 140 °C; as for `CC(=O)NC[C@H]1CN(c2ccc3c(c2)CCSCC3=O)C(=O)O1`, 232 to 233 °C. As for `CSc1ccc(C=O)c(Cl)c1`, the figure is 76 to 77 °C. `CC(=O)Oc1c(C)c(C)c2c(c1C)CCC(C)(O)O2` (configuration not stated) showed a melting point of 127 to 132 °C. The same measure for `CCOC(=O)COC(CC)c1ccc(-c2ccc(Cl)cc2)cc1` (configuration not stated): 170 to 172 °C; for `O=C1CCC(c2ccc(-c3nccs3)cc2)=NN1`: 265 to 266 °C; for `CCC(CC)N(O)C(=O)Nc1ccc(Oc2ccccc2)cc1`: 124 to 125 °C. The same measure for `CCCCCCCNC(=O)N(C)c1cccc(-c2ccc(CCC(=O)NO)cc2)c1`: 100 to 101 °C. As to `CCC(CC)N(Cc1ccc(C(=O)O)cc1)S(=O)(=O)c1ccc(OC)cc1`, the melting point lay within 86 to 87 °C. The same measure for `CC(=O)OCC1OC(n2cnc3c(N)nc(F)nc32)C(OC(C)=O)C1OC(C)=O` (configuration not stated): 195 to 196 °C; for `CN1[C@H]2CC[C@@H]1[C@H](c1nc(-c3ccncc3)no1)[C@@H](c1ccc3c(c1)OCO3)C2`: 110 to 112 °C; for `CCC(C)(C)N=C(NC#N)Nc1cc(Cl)cc(Cl)c1`: 151 to 153 °C. In turn, `Cc1cc(NC(=O)C2=C(O)CN(C)S(=O)(=O)N2C)no1` returned a melting point of 189 to 192 °C. In turn, `COC(=O)c1ccc(NC(=O)c2ccccc2Cc2ccccc2)cc1` returned a melting point of 138 to 139 °C. The same measure for `c1ccc(C2(c3ccccc3)CCSCC2)cc1`: 134 °C; for `CN(C)Cc1c[nH]c2ccc(OCc3ccccc3)c(Cl)c12`: 137 to 139 °C; for `C[C@@H]1O[C@@]1(Cn1cncn1)c1cc(F)ccc1F`: 69 °C. The same measure for `CC(=O)N1C(=O)C(C(=O)Cc2ccccc2)c2ccccc21` (configuration not stated): 149 to 151 °C. In the case of `CCc1ccc(C(=O)c2ccc(F)cc2)c(O)c1`, the melting point is 44 to 48 °C.

For the molecule `Cc1cc(NC2=NCCN2C)n(C)n1`, the melting point is 128 to 130 °C.

With `CSc1ccc(-c2oncc2C(=O)C2CC2)nc1`, the melting point fell in the range of 103 to 104 °C. As for `COCCCc1cc(N(C)Cc2ccc(-c3ccc(C(F)(F)F)cc3)nc2)ccc1OCC(=O)O`, the figure is 72 to 76 °C; as for `N#Cc1ccccc1-c1cccc(Cc2ccc(OCc3ccccc3)cc2)c1Nn1cnnc1`, 171 to 173 °C.

`COC(=O)c1ccc(C(=O)c2ccccc2)[nH]1` displayed a melting point of 111 to 113 °C. `COc1cc2c(cc1CCCCN1CCCC1)[nH]c1cc(-c3ccccc3Cl)c3c(c12)C(=O)NC3=O` returned a melting point of 173 to 178 °C. As for `NP(N)(=O)NC(=O)C=Cc1ccccc1`, the figure is 176 to 178 °C; as for `O=C(O)c1cn(-c2ccccc2)c2c(F)c(F)c(F)cc2c1=O`, 88 to 90 °C. Molecule `CCOC(=O)c1ccccc1-n1c(=O)c2ccccc2n(CCCCBr)c1=O` registered a melting point of 101 to 102 °C. `C1=C(c2c[nH]c3ccccc23)CN(Cc2ccccc2)CC1` yielded a melting point of 105 to 107 °C. Molecule `O=Cc1cnc(Cl)c(Cl)c1` had a melting point of 65 °C. The same measure for `Cc1ccccc1CC(=O)c1c(O)c2cccnc2n(-c2cccc(OC(F)(F)F)c2)c1=O`: 132 to 134 °C; for `COC1=CC2=CCC3C4CC=CC4(C)CCC3C2(C)CC1` (configuration not stated): 83 to 92 °C. As for `O=C1CCCCN1S(=O)(=O)c1ccc(N2CCCCCCC2)cc1`, the figure is 150 to 152 °C; as for `CN(Cc1cc2c(=O)c(C(=O)NCc3ccc(Cl)cc3)cn(C)c2o1)CC(O)CSc1nnc(N)s1` (configuration not stated), 200 to 204 °C; as for `O=C1CCC(c2cccc(O)c2)N1Cc1ccncc1` (configuration not stated), 148 to 150 °C. The same measure for `CCNC(=O)c1c(F)cccc1[Si](C)(C)C`: 86 to 87 °C; for `CCc1nc(N)nc(N)c1CCCc1cccc(-c2ccccc2)c1`: 128 to 133 °C; for `O=C1C(=C2CCCN2Cc2ccccc2)c2ccccc2N1c1cccc(Cl)c1`: 72 to 75 °C. Regarding `CC(=O)C(C)(CO)CO`, the melting point is 60 °C. As for `CS(=O)(=O)Nc1nc(CN2CCN(C(c3ccccc3)c3ccccc3)CC2)cs1`, the figure is 177 to 179 °C; as for `CC(=O)c1ccc(-c2cc(-c3c(-c4ccccn4)nc4ccccn34)ccn2)cc1`, 214 °C.

The values above are taken from a melting point compilation (Tetko et al.; mined from patent text by program, amines drawn as free bases though some values may be those of a salt).
